Patent US20170253607A1, “LONG-ACTING HIV PROTEASE INHIBITOR” (Shionogi & Co., Ltd., priority 2014, published 2017)

Target: HIV-1 PR (Human immunodeficiency virus type 1 group M subtype B, UniProt P04585)
Experiment: HIV-protease inhibitory activity assay (FRET peptide substrate)
Assay type: biochemical
Details: Test Example 1
Summary of the method: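 HIV-1 PR (0.83 ng) preincubated with compounds 20 min at room temperature in 0.1 mol/L NaAc, 0.5 mol/L NaCl, 1 mmol/L EDTA, 1 mmol/L DTT, 0.05% Tween 20, pH 4.8. Cleavage of HiLyte Fluor 488/QXL 520 FRET peptide (2 μmol/L) read after 60 minutes at 485/535 nm; IC50 from four-parameter logistic fit.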

Structure (SMILES) | IC50
COc1ccc(S(=O)(=O)N(CC(C)C)CC(O)C(Cc2ccc(N(C)Cc3cnc4sccc4c3-c3sc4c(c3C(=O)O)CC(C)(C)CC4)cc2)NC(=O)OC2COC3(C)OCCC23)cc1 (stereo not drawn) [Compound I-702] | 2.15 nM
COc1ccc(S(=O)(=O)N(CC(C)C)CC(O)C(Cc2ccc(N(C)C3Cc4cccc(-c5sc6c(c5C(=O)O)CC(C)(C)CC6)c4C3)cc2)NC(=O)OC2COC3(C)OCCC23)cc1 (stereo not drawn) [Compound I-404] | 1.88 nM
COc1ccc(S(=O)(=O)N(CC(C)C)CC(O)C(Cc2ccc(-c3sc4c(c3C(=O)O)CC(C)(C)CC4)cc2)NC(=O)OC2COC3(C)OCCC23)cc1 (stereo not drawn) [Compound I-41] | 1.11 nM
COc1ccc(S(=O)(=O)N(CC(C)C)CC(O)C(Cc2ccc(CN(C)Cc3ccccc3-c3sc4c(c3C(=O)O)CC(C)(C)CC4)cc2)NC(=O)OC2COC3(C)OCCC23)cc1 (stereo not drawn) [Compound I-250] | 2.2 nM
COc1ccc(S(=O)(=O)N(CC(C)C)CC(O)C(Cc2ccc(N(C)CC3CCCCC3c3sc4c(c3C(=O)O)CC(C)(C)CC4)cc2)NC(=O)OC2COC3(C)OCCC23)cc1 (stereo not drawn) [Compound I-358] | 3.89 nM
COc1ccc(S(=O)(=O)N(CC(C)C)CC(O)C(Cc2ccc(NCC3(c4cccc(-c5sc6c(c5C(=O)O)CC(C)(C)CC6)c4)CCCC3)cc2)NC(=O)OC2COC3(C)OCCC23)cc1 (stereo not drawn) [Compound I-393] | 14.5 nM
COc1ccc(S(=O)(=O)N(CC(C)C)CC(O)C(Cc2ccc(OCc3ccnc(C(=O)O)c3)cc2)NC(=O)OC2COC3(C)OCCC23)cc1 (stereo not drawn) [Compound I-306] | 1.89 nM
COc1ccc(S(=O)(=O)N(CC(C)C)CC(O)C(Cc2ccc(N(C)Cc3ccccc3-c3ccc(Nc4sc5c(c4C(=O)O)CC(C)(C)CC5)nc3)cc2)NC(=O)OC2COC3(C)OCCC23)cc1 (stereo not drawn) [Compound I-776] | 6.4 nM
COc1ccc(S(=O)(=O)N(CC(C)C)CC(O)C(Cc2ccc(OCCn3nc(C)c(-c4sc5c(c4C(=O)O)CC(C)(C)CC5)c3C)cc2)NC(=O)OC2COC3OCCC23)cc1 (stereo not drawn) [Compound I-810] | 1.03 nM
COc1ccc(S(=O)(=O)N(CC(C)C)CC(O)C(Cc2ccc(NCc3csc(-c4sc5c(c4C(=O)O)CC(C)(C)CC5)n3)cc2)NC(=O)OC2COC3(C)OCCC23)cc1 (stereo not drawn) [Compound I-295] | 2.19 nM
COc1ccc(S(=O)(=O)N(CC(C)C)CC(O)C(Cc2ccc(OCC3CCC(Nc4ccc(C#N)cc4-c4sc5c(c4C(=O)O)CC(C)(C)CC5)CC3)cc2)NC(=O)OC2COC3(C)OCCC23)cc1 (stereo not drawn) [Compound I-330] | 40.6 nM
COc1ccc(S(=O)(=O)N(CC(C)C)CC(O)C(Cc2ccc(Oc3ccc(-c4sc5c(c4C(=O)O)CC(C)(C)CC5)c(OC)c3)cc2)NC(=O)OC2COC3(C)OCCC23)cc1 (stereo not drawn) [Compound I-136] | 1.4 nM
CC(C)CN(CC(O)C(Cc1ccc(OCc2cnc(C(=O)O)c(-c3ccc(F)cc3F)c2)cc1)NC(=O)OC1COC2(C)OCCC12)S(=O)(=O)c1ccc2ncsc2c1 (stereo not drawn) [Compound I-157] | 1.22 nM
COc1ccc(S(=O)(=O)N(CC(C)C)CC(O)C(Cc2ccc(N(C)CC(=O)Nc3sc4c(c3C(=O)O)CC(C)(C)CC4)cc2)NC(=O)OC2COC3(C)OCCC23)cc1 (stereo not drawn) [Compound I-663] | 2.8 nM
COc1ccc(S(=O)(=O)N(CC(C)C)CC(O)C(Cc2ccc(N(C)Cc3ncccc3-c3ccccc3-c3sc4c(c3C(=O)O)CC(C)(C)CC4)cc2)NC(=O)OC2COC3(C)OCCC23)cc1 (stereo not drawn) [Compound I-477] | 2 nM
COc1ccc(S(=O)(=O)N(CC(C)C)CC(O)C(Cc2ccc(OCc3ccccc3-c3ccc4c(c3)C(=O)C(C3CCCCC3)C4=O)cc2)NC(=O)OC2COC3(C)OCCC23)cc1 (stereo not drawn) [Compound I-72] | 1.45 nM
COc1ccc(S(=O)(=O)N(CC(C)C)CC(O)C(Cc2ccc(N(C)Cc3ncccc3-c3cccc(-c4sc5c(c4C(=O)O)CC(C)(C)CC5)c3)cc2)NC(=O)OC2COC3(C)OCCC23)cc1 (stereo not drawn) [Compound I-512] | 1.63 nM

Structure (SMILES) | IC50
COc1ccc(S(=O)(=O)N(CC(C)C)CC(O)C(Cc2ccc(NCc3cc(-c4sc5c(c4C(=O)O)CC(C)(C)CC5)cc4ccccc34)cc2)NC(=O)OC2COC3(C)OCCC23)cc1 (stereo not drawn) [Compound I-650] | 4.31 nM
CC1(C)CCc2sc(-c3cccc(CCCN(C[C@@H](O)[C@H](Cc4ccccc4)NC(=O)O[C@H]4CO[C@@]5(C)OCC[C@@H]45)S(=O)(=O)c4ccc5ncsc5c4)c3)c(C(=O)O)c2C1 [Compound I-36] | 1.88 nM
COc1ccc(S(=O)(=O)N(CC(C)C)CC(O)C(Cc2ccc(OCC3CN(c4ccc(C#N)cc4-c4sc5c(c4C(=O)O)CC(C)(C)CC5)C3)cc2)NC(=O)OC2COC3(C)OCCC23)cc1 (stereo not drawn) [Compound I-329] | 7.67 nM
COc1ccc(S(=O)(=O)N(CC(C)C)CC(O)C(Cc2ccc(OCc3ccccc3-c3ccc4c(O)c(-c5ccc(Oc6ccccc6)cc5)c(=O)[nH]c4c3)cc2)NC(=O)OC2COC3OCCC23)cc1 (stereo not drawn) [Compound I-821] | 2.24 nM
COc1ccc(S(=O)(=O)N(CC(C)C)CC(O)C(Cc2ccc(NCc3occc3-c3sc4c(c3C(=O)O)CC(C)(C)CC4)cc2)NC(=O)OC2COC3(C)OCCC23)cc1 (stereo not drawn) [Compound I-276] | 2.16 nM
COc1ccc(S(=O)(=O)N(CC(C)C)CC(O)C(Cc2ccc(NCc3cccc4c(-c5sc6c(c5C(=O)O)CC(C)(C)CC6)cccc34)cc2)NC(=O)OC2COC3(C)OCCC23)cc1 (stereo not drawn) [Compound I-675] | 13.4 nM
COc1ccc(S(=O)(=O)N(CC(C)C)CC(O)C(Cc2ccc(OCCNC(=O)c3cc(Cl)cc(Cl)c3O)cc2)NC(=O)OC2COC3(C)OCCC23)cc1 (stereo not drawn) [Compound I-68] | 1.83 nM
COc1ccc(S(=O)(=O)N(CC(C)C)CC(O)C(Cc2ccc(OCC3=C(c4sc5c(c4C(=O)O)CC(C)(C)CC5)COC3)cc2)NC(=O)OC2COC3(C)OCCC23)cc1 (stereo not drawn) [Compound I-385] | 1.25 nM
COc1ccc(S(=O)(=O)N(CC(C)C)CC(O)C(Cc2ccc(NCC3CCCCN3C(=O)c3sc4c(c3C(=O)O)CC(C)(C)CC4)cc2)NC(=O)OC2COC3(C)OCCC23)cc1 (stereo not drawn) [Compound I-604] | 2.19 nM
CC(C)CN(CC(O)C(Cc1ccc(NCc2ccccc2C(=O)Nc2sc3c(c2C(=O)O)CC(C)(C)CC3)cc1)NC(=O)OC1COC2(C)OCCC12)S(=O)(=O)c1ccc2c(c1)OCO2 (stereo not drawn) [Compound I-591] | 3.16 nM
COc1ccc(S(=O)(=O)N(CC(C)C)CC(O)C(Cc2ccc(OCc3ccccc3-c3sc4c(c3C(=O)O)CC(F)(F)CC4)cc2)NC(=O)OC2COC3(C)OCCC23)cc1 (stereo not drawn) [Compound I-54] | 1.24 nM
COc1ccc(S(=O)(=O)N(CC(C)C)CC(O)C(Cc2ccc(OCc3ccccc3-c3sc4c(c3C(=O)O)CC(C)(C)CC4)cc2)NC(=O)OC2COC3(C)OCC(O)C23)cc1 (stereo not drawn) [Compound I-56] | 1.21 nM
COc1ccc(S(=O)(=O)N(CC(C)C)CC(O)C(Cc2ccc(NCC3CC(C)(C)CCC3c3sc4c(c3C(=O)O)CC(C)(C)CC4)cc2)NC(=O)OC2COC3OCCC23)cc1 (stereo not drawn) [Compound I-887] | 2.85 nM
COc1ccc(S(=O)(=O)N(CC(C)C)CC(O)C(Cc2ccc(NCc3ccc(-c4sc5c(c4C(=O)O)CC(C)(C)CC5)c(C)c3)cc2)NC(=O)OC2COC3(C)OCCC23)cc1 (stereo not drawn) [Compound I-534] | 4.11 nM
COc1ccc(S(=O)(=O)N(CC(C)C)CC(O)C(Cc2ccc(N(C)c3ccc(-c4sc5c(c4C(=O)O)CC(C)(C)CC5)cc3)cc2)NC(=O)OC2COC3(C)OCCC23)cc1 (stereo not drawn) [Compound I-469] | 5.16 nM
COc1ccc(S(=O)(=O)N(CC(C)C)CC(O)C(Cc2ccc(N(C)c3cccc(-c4sc5c(c4C(=O)O)CC(C)(C)CC5)c3)cc2)NC(=O)OC2COC3(C)OCCC23)cc1 (stereo not drawn) [Compound I-479] | 2.49 nM
